For 3 compounds, pKB results are on record in ChEMBL document CHEMBL1153678, “Bromobenzofurans : a new class of potent, non-peptide antagonists of angiotensin II” (Bioorg Med Chem Lett, 1991).

Molecules are shown by their SMILES.

This assay has as its target T1, Type-1 angiotensin II receptor (Oryctolagus cuniculus) (UniProt P34976).
T1 sequence (whole entry): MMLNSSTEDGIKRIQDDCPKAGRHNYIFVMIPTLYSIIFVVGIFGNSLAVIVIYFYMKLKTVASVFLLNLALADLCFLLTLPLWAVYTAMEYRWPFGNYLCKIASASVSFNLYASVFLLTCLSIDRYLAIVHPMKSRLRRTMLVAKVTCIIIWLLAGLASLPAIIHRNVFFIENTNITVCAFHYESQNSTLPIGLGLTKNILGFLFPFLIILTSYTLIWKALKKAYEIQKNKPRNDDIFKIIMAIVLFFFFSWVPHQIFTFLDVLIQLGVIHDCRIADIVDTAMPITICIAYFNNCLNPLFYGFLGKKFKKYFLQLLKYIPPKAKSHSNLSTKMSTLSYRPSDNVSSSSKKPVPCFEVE
Kind of assay: Angiotensin II receptor, type 1 antagonist activity in rabbit isolated thoracic aorta. It counts as functional, tissue-based.
A word on the pKB: it is the KB on a negative log10 scale, so that one unit is a factor of ten. Read a high pKB as a small KB. Compound `CCCCc1nc(Cl)c(CO)n1Cc1ccc(-c2ccccc2C(=O)O)cc1` displayed a pKB of 6.9.
`CCCCc1nc(Cl)c(C(=O)O)n1Cc1ccc(-c2ccccc2-c2nn[nH]n2)cc1` yielded a pKB of 10.6.
In turn, `CCCCc1nc(Cl)c(CO)n1Cc1ccc(-c2ccccc2-c2nnn[nH]2)cc1` registered a pKB of 8.4.
